{"source": "patent US20220265635A1", "about": "“TREATMENT OF NEUROLOGICAL DISEASE” (Aclipse One Inc., priority 2018, published 2022)", "key": {"NRF2 [1]": {"tested_on": "NRF2", "test": "Example 1 in vivo pharmacodynamic study via subcutaneous dosing: expression of genes upregulated by NRF2 activation", "parameters": "species or system mouse", "settings": "wildtype mice", "protocol": "(§1) Wildtype mice (3 per group) were dosed subcutaneously at 0, 0.5, 1.5, 5 and 10 mg/kg (6aS)-6-methyl-5,6,6a,7-tetrahydro-4H-dibenzo[de,g]quinoline-10,11-diol hydrochloride for 7 days once daily. One animal in the 10 mg/kg dosing group was actually dosed 15 mg/kg on Day 1. To prepare the dosing solutions, (6aS)-6-methyl-5,6,6a,7-tetrahydro-4H-dibenzo[de,g]quinoline-10,11-diol was pre-weighed into bijous and stored in foil."}, "[2]": {"test": "Example 4 mouse weights in TDP-43^Q331K mouse model", "format": "in vivo", "settings": "TDP-43^Q331K mice", "protocol": "(§2) Following genotyping, transgenic females were block randomized into three different dosing groups: vehicle once daily, 2.5 mg/kg (6aS)-6-methyl-5,6,6a,7-tetrahydro-4H-dibenzo[de,g]quinoline-10,11-diol twice daily and 5 mg/kg (6aS)-6-methyl-5,6,6a,7-tetrahydro-4H-dibenzo[de,g]quinoline-10,11-diol once daily. The doses were selected based on results of previous internal studies. Animals were weighed daily before dosing and dosed subcutaneously at 10 ml/kg with a solution of 0.5 mg/ml (6aS)-6-methyl-5,6,6a,7-tetrahydro-4H-dibenzo[de,g]quinoline-10,11-diol for the 5 mg/kg dose and 0.25 mg/ml for the 2.5 mg/kg dose. Where animals were dosed twice a day, the doses were at least 6 hours apart and the dosing solution was freshly made for the second dose of the day.\n(§3) The study was designed with two main cohorts of mice. One cohort was dosed from 25 days of age until 6 months of age and mice had behavioral testing throughout the study and consisted of 14 mice per group. The other satellite cohort was dosed from 25 days of age until 3 months of age, with no behavioral testing and consisted of 6 mice per group for target engagement and histological assessment. Behavioral tests that were carried out during the experiment were: accelerated rotarod test, gait analysis, and electrophysiology.\nAnimals were weighed daily before dosing to calculate dose volume. […]"}, "TDP-43^Q331K mouse model": {"tested_on": "TDP-43^Q331K mouse model", "test": "Example 4 catwalk gait analysis", "format": "in vivo", "settings": "TDP-43^Q331K mice", "protocol": "as §2, §3\nGait analysis was carried out at 3 months and 6 months of age using the catwalk gait analysis system 7.1 (Noldus Information Technology B.V., Netherlands) and analyzed using Catwalk software 7.1. The software calculated many different gait parameters such as stride length, base of support (BOS) and swing time as well as step patterns and percentage of time spent on 2, 3 or 4 paws.\nOn the day of the test mice were placed on the glass runway and allowed to run freely back and forth. About 6 straight, consistent runs were recorded by the camera for each mouse. The 3 best runs with the closest total run time were selected for each mouse for analysis. For these three runs, the paw prints were labelled in successive frames using the software, which then analyzed multiple gait parameters for each of the runs. Using Excel, the average of all three runs per mouse was calculated, followed by the average per group for each of the gait parameters.\nGait analysis was performed using the catwalk system (Noldus) at both 3 and 6 months of age in 8 mice per group per timepoint. Traditionally in this model, the base of support increases with age, as shown in FIG. 9-13, represented the waddling or ‘swimming’ gait described in this strain."}, "dopamine receptors": {"tested_on": "dopamine receptors", "settings": "background description; cited from earlier work"}, "NRF2 [3]": {"tested_on": "NRF2", "test": "Example 2 in vivo pharmacodynamic study via subcutaneous dosing, cortex: expression of genes upregulated by NRF2 activation", "settings": "wildtype mouse cortex, 5 mg/kg s.c. once daily 7 days, compared to Gapdh", "protocol": "as §1"}, "[4]": {"tested_on": "Nrf2 and HSF1 target genes", "test": "Example 4 target engagement qPCR of cortex tissue", "format": "in vivo, mouse", "settings": "normalized to Gapdh", "protocol": "This in vivo pharmacology study was designed to test the efficacy of (6aS)-6-methyl-5,6,6a,7-tetrahydro-4H-dibenzo[de,g]quinoline-10,11-diol on the progression of motor and cognitive decline in the TDP-43^Q331K mouse model. In addition, tissue was collected at the end of the experiment for target engagement (gene expression) analysis of Nrf2 and HSF1 target genes.\nas §2, §3\nTissue was collected at 24 hours after the final morning dose. All animals were overdosed with an intraperitoneal injection of pentibarital (JML, M042) at the time of tissue collection (2.5 ml/kg). In the 6 month cohort (n=14), 7 animals per group were perfused to fix tissue for histology. For these animals, once animals had lost pedal reflex, the chest cavity was opened and 10 ml of PBS was perfused via the heart, followed by 10 ml of 4% PFA. Brain and spinal cord were extracted and stored in 4% PFA overnight before being changed to PBS. The lumbar section of the spinal cord was dissected and embedded. For the remaining 7 animals per group, once the animals had lost pedal reflex, blood was extracted via a cardiac puncture technique. The blood was collected and stored in 1 ml of RNALater (ThermoFisher). Spinal cords were removed and the upper section of spinal cord was snap frozen in liquid nitrogen for protein analysis, while the lower section was stored in RNALater and stored at −20° C. Cortex was removed and dissected into four parts, the front left segment was stored in RNALater, while the three other sections were snap frozen in liquid nitrogen.\nFor the 3 month cohort, tissue was collected in a similar way to the snap frozen tissue for 6 month cohort, however where tissue was stored in RNALater for the 6 month cohort, it was processed for RNA extraction immediately in the 3 month cohort.\nRNA was extracted from lower spinal cord and cortex using the RNeasy lipid tissue mini kit (Qiagen, 74804) following the manufactures protocol. Briefly tissue was homogenized in a small volume (150 μl) of QIAzol using a hand-held homogenizer in a fume hood. Once homogenized, the total volume of QIAzol was increased to 1 ml. Samples were incubated at room temperature for 5 minutes after which 200 μl of chloroform (Honeywell) was added and samples were shaken vigorously for 15 seconds. Mixed samples were then incubated at room temperature for 3 minutes then centrifuged at 12,000g for 15 minutes at 4° C. in a bench top microcentrifuge.\nThe upper aqueous phase of the sample was transferred to a fresh labelled tube and 1 volume of 70% ethanol was added. Samples were vortexed and 700 μl of sample was transferred to RNeasy mini spin columns attached to 2 ml collection tubes. […]"}, "[5]": {"settings": "5 mg/kg s.c. once daily 7 days, 24 hours post final dose, compared to Gapdh"}, "[6]": {"settings": "10 mg/kg s.c. once daily 7 days, 24 hours post final dose, compared to Actb"}, "[7]": {"settings": "3 months, 2.5 mg/kg dosing group"}}, "data": [{"smiles": "CN1CCc2cccc3c2[C@@H]1Cc1ccc(O)c(O)c1-3", "note": "[(6aS)-6-methyl-5,6,6a,7-tetrahydro-4H-dibenzo[de,g]quinoline-10,11-diol]", "values": [{"measurement": "Gclm gene induction", "setting": "NRF2 [1]; 5 mg/kg s.c. once daily 7 days, 6 hours post final dose, compared to Gapdh", "result": 1.5, "unit": "fold"}, {"measurement": "Gclm gene induction", "setting": "NRF2 [1]; [5]", "result": 1.5, "unit": "fold"}, {"measurement": "Nqo1 gene induction", "setting": "NRF2 [1]; [5]", "result": 1.3, "unit": "fold"}, {"measurement": "Gclm gene induction", "setting": "NRF2 [1]; 10 mg/kg s.c. once daily 7 days, 6 hours post final dose, compared to Actb", "result": 1.4, "unit": "fold"}, {"measurement": "Gclm gene induction", "setting": "NRF2 [1]; [6]", "result": 1.2, "unit": "fold"}, {"measurement": "NRF2-responsive gene induction", "setting": "NRF2 [1]; [6]", "result": 1.4, "unit": "fold"}, {"measurement": "mouse weight compared to the vehicle dosing group", "setting": "[2]; 3-month cohort, either dosing group (2.5 mg/kg twice daily, 5 mg/kg once daily s.c.)", "result": "no significant difference"}, {"measurement": "mouse weight compared to the vehicle dosing group", "setting": "[2]; 6-month cohort, 2.5 mg/kg dosing group, from 121 days of age until the end of the study", "result": "significant decrease"}, {"measurement": "gait parameters (time spent on diagonal paws, on three or four paws) from 3 to 6 months", "setting": "TDP-43^Q331K mouse model; 2.5 mg/kg dosing group", "result": "relatively stable"}, {"measurement": "change in percentage of time spent on 3 paws between 3 months and 6 months of age, compared to vehicle", "setting": "TDP-43^Q331K mouse model; 2.5 mg/kg twice daily", "result": "significant decrease"}, {"measurement": "change in percentage of time spent on diagonal paws between 3 months and 6 months of age", "setting": "TDP-43^Q331K mouse model; 2.5 mg/kg twice daily, significant difference to vehicle, which has a decrease", "result": "slight increase"}, {"measurement": "gait parameters (time spent on diagonal paws, on three or four paws) from 3 to 6 months", "setting": "TDP-43^Q331K mouse model; 5 mg/kg dosing group", "result": "relatively stable"}, {"measurement": "effect on swimming gait (base of support increasing with age)", "setting": "TDP-43^Q331K mouse model; 3 and 6 months of age", "result": "did not limit this swimming gait"}, {"measurement": "activity on dopamine receptors (in words)", "setting": "dopamine receptors", "result": "weak dopamine antagonist"}, {"measurement": "Gclm gene induction", "setting": "NRF2 [3]; 6 hours post final dose", "result": 1.51, "unit": "fold"}, {"measurement": "Hmox1 gene induction", "setting": "NRF2 [3]; 6 hours post final dose", "result": 2.02, "unit": "fold"}, {"measurement": "Nqo1 gene induction", "setting": "NRF2 [3]; 6 hours post final dose", "result": 1.04, "unit": "fold"}, {"measurement": "Nrf1 gene induction", "setting": "NRF2 [3]; 6 hours post final dose", "result": 2.39, "unit": "fold"}, {"measurement": "Pgc1a gene induction", "setting": "NRF2 [3]; 6 hours post final dose", "result": 1.71, "unit": "fold"}, {"measurement": "Gclm gene induction", "setting": "NRF2 [3]; 24 hours post final dose", "result": 1.45, "unit": "fold"}, {"measurement": "Hmox1 gene induction", "setting": "NRF2 [3]; 24 hours post final dose", "result": 2.11, "unit": "fold"}, {"measurement": "Nqo1 gene induction", "setting": "NRF2 [3]; 24 hours post final dose", "result": 1.32, "unit": "fold"}, {"measurement": "Nrf1 gene induction", "setting": "NRF2 [3]; 24 hours post final dose", "result": 1.58, "unit": "fold"}, {"measurement": "Pgc1a gene induction", "setting": "NRF2 [3]; 24 hours post final dose", "result": 1.70, "unit": "fold"}, {"measurement": "GSR relative mRNA level compared to vehicle", "setting": "[4]; [7]", "result": "upregulation"}, {"measurement": "Nqo1 relative mRNA level compared to vehicle", "setting": "[4]; [7]", "result": "upregulation"}, {"measurement": "Osgin1 relative mRNA level compared to vehicle", "setting": "[4]; [7]", "result": "upregulation"}, {"measurement": "GSR relative mRNA level compared to vehicle", "setting": "[4]; 3 months, 5 mg/kg dosing group", "result": "significant upregulation"}, {"measurement": "Hspa1a relative mRNA level compared to vehicle", "setting": "[4]; 3 months, 5 mg/kg dosing group", "result": "significant upregulation"}, {"measurement": "Nqo1 relative mRNA level compared to vehicle", "setting": "[4]; 3 months, 5 mg/kg dosing group", "result": "significant upregulation"}, {"measurement": "Sqstm1 relative mRNA level compared to vehicle", "setting": "[4]; 3 months, 5 mg/kg dosing group", "result": "significant upregulation"}, {"measurement": "Hspa1a relative mRNA level compared to vehicle", "setting": "[4]; 6 months, 2.5 mg/kg twice daily", "result": "significant upregulation"}, {"measurement": "Hspa1a relative mRNA level compared to vehicle", "setting": "[4]; 6 months, 5 mg/kg daily", "result": "significant upregulation"}]}]}
